Results published in patent US20110098278A1 (priority 2009, published 2011).
Values joined by “and” are separate entries in the source; they are usually repeats but may differ in a detail not shown here. Equal entries are not always repeated. “Also recorded” adds a separate entry of the source. Structures can show the parent of a compound that is named as a salt.

What was measured:
[1] = system: rat; experiment: Comparative acute toxicity (rat behavior) of sc and po galantamine; type: in vivo; settings: individual rats
[2] = system: human stomach circular smooth muscle; experiment: Ex vivo human stomach circular smooth muscle, electrical field stimulation; type: cell-based; settings: human stomach strips under EFS; 100 nM to 100 μM
[3] = system: rabbit stomach circular smooth muscle; experiment: Ex vivo rabbit stomach circular smooth muscle, electrical field stimulation; type: cell-based; settings: rabbit stomach strips under EFS; 100 nM to 100 μM
[4] = system: Sprague Dawley rat; experiment: PICA behavior (kaolin consumption) in the Sprague Dawley rat as surrogate for emesis; type: in vivo; settings: for Cumulative mean ± SD kaolin consumption: 40 mg base/kg po
Procedure: This is a well established model for this purpose in the rat (Takeda N et al (1993) 45 817-21).
Once determined, a comparison was made of the effects of these doses on kaolin consumption over a 0-96 hour period in 24 h increments.
In detail groups of 10 male Sprague Dawley rats were habituated to kaolin for 3 days, then singly housed in grid-bottomed cages and habituated for a further 2 days prior to dosing. On the day of drug administration, the animals were food-deprived for 1 h prior to dosing. […] Access to a weighed quantity of food and kaolin was then restored. Food and kaolin was weighed 24, 48, 72 and 96 h after dosing.

[5] = Local galantamine concentration within the stomach after a typical dose; settings: following a typical 24 mg dose
[6] = system: ferret; experiment: Emetic activity (retching and vomiting) in the ferret
[7] = 20 mg (free base)/kg oral or similar molar dose
[8] = 20 mg/kg p.o., 2 hr. observation, individual ferrets, listed as Galantamine HBr, hydrobromide

COc1ccc2c3c1O[C@H]1C[C@@H](O)C=C[C@@]31CCN(C)C2 [Galantamine, (4aS,6R,8aS)-4a,5,9,10,11,12-hexahydro-3-methoxy-11-methyl-6H-benzofuro[3a,3,2ef][2]benzazepin-6-ol hydrobromide]
Effect on rat behavior ([1]; 3.5 mg/kg sc, 2 min post dose, hydrobromide): Rat 1: purposeless chewing, mouth; also recorded: Rat 3: purposeless chewing, mouth | Effect on rat behavior ([1]; 3.5 mg/kg sc, 5 min post-dose, hydrobromide): Rat 1: purposeless chewing, mouth movements,; also recorded: Rat 3: As per 2 min | Effect on rat behavior ([1]; 3.5 mg/kg sc, 10 min post-dose, hydrobromide): Rat 1: Tremors, flattened rostral body; also recorded: Rat 3: purposeless chewing, mouth | Effect on rat behavior ([1]; 3.5 mg/kg sc, 20 min post-dose, hydrobromide): Rat 1: Quiescent, flattened body posture,; also recorded: Rat 3: Some ambulation restored symptoms | Effect on rat behavior ([1]; 3.5 mg/kg sc, 30 min post-dose, hydrobromide): Rat 1: Quiescent, flattened body posture,; also recorded: Rat 3: Some ambulation restored | Effect on rat behavior ([1]; 3.5 mg/kg sc, 45 min post-dose): Rat 1: food consumption and more | Effect on rat behavior ([1]; 3.5 mg/kg sc, 1 h, hydrobromide): Rat 1: Normal; also recorded: Rat 3: Normal | Effect on rat behavior ([1]; 40 mg/kg po, 10 min post-dose, hydrobromide): Rat 6: Quiescent, purposeless; also recorded: Rat 7: Quiescent, purposeless chewing, | Effect on rat behavior ([1]; 40 mg/kg po, 20 min post-dose, hydrobromide): Rate 6 as per 10 min + arching; also recorded: Rat 7: grooming + purposeless | Effect on rat behavior ([1]; 40 mg/kg po, 30 min post-dose): Rat 6: quiescent, purposeless chewing, | Effect on rat behavior ([1]; 40 mg/kg po, 45 min post-dose, hydrobromide): Rat 6: flattened body posture, chewing,; also recorded: Rat 7: grooming, sawdust consumption | Effect on rat behavior ([1]; 40 mg/kg po, 1 h, hydrobromide): Rat 6: flattened body posture, tremor; also recorded: Rat 7: Grooming, sawdust | Effect on rat behavior ([1]; 40 mg/kg po, 1.5 h, hydrobromide): Rat 7: quiet, falttened posture | Effect on rat behavior ([1]; 40 mg/kg po, 2 h, hydrobromide): Rat 6: much improved; also recorded: Rat 7: much improved | Effect on rat behavior ([1]; 40 mg/kg po, 3 h, hydrobromide): Rat 6: normal; also recorded: Rat 7: normal | stimulation of smooth muscle contractions (change in force production) [2]: evidence of a dose response | stimulation of smooth muscle contractions (change in force production) [3]: evidence of a dose response | kaolin consumption compared with controls (in words) ([4]; 3.5 mg/kg subcutaneous, over the whole 96 h period): no increase at all in kaolin consumption | Cumulative mean ± SD kaolin consumption ([4]; 24 h): 2.73 ± 1.4 g | Cumulative mean ± SD kaolin consumption ([4]; 48 h): 3.36 ± 1.68 g | Cumulative mean ± SD kaolin consumption ([4]; 72 h): 4.07 ± 1.88 g | Cumulative mean ± SD kaolin consumption ([4]; 96 h, hydrobromide): 4.69 ± 2.43 g | Cumulative mean ± SD kaolin consumption ([4]; 96 h, listed as galantamine, hydrobromide): 4.69 ± 2.43 g | kaolin consumption / PICA behavior (in words) ([4]; 40 mg/kg oral, over 96 h, hydrobromide): significantly higher; also recorded: marked PICA behavior | rat kaolin consumption (g) over 24 h post-dose ([4]; single oral dose 40 mg base/kg, Mean): 1.79 g | rat kaolin consumption (g) over 24 h post-dose ([4]; single oral dose 40 mg base/kg, individual rats 1-10, hydrobromide): 1.06 g and 0.35 g and 0.02 g and 3.14 g and 4.47 g and 1.62 g and 0.16 g and 2.93 g and 3.11 g and 1.03 g | rat kaolin consumption (g) over 24 h post-dose ([4]; single subcutaneous dose of 3.5 mg base/kg, Mean (rat 7 omitted as outlier)): 0.25 g | rat kaolin consumption (g) over 24 h post-dose ([4]; single subcutaneous dose of 3.5 mg base/kg, individual rats 1-10, hydrobromide): 0.67 g and 0.36 g and 0.88 g and 0.08 g and *1.57 g and 0.00 g (3×) and 0.21 g and 0.05 g | Local concentrations within the stomach [5]: 200 to 400 µM | animals dosed that retched [6, 7]: 55% | animals dosed that vomited [6, 7]: 40% | Total number of individual incidences of: Retching ([6]; 20 mg/kg p.o. (galantamine free base content), 2 hr. observation, individual ferrets, listed as Galantamine HBr, hydrobromide): 21 and 29 and 18 and 0 (9×) and 31 and 3 (2×) and 6 and 2 and 5 and 13 and 22 | Time (min) to onset of: Retching [6, 8]: 33 min and 3 min and 5 min (3×) and >120 min (8×) and 41 min and 11 min and 10 min and 7 min (2×) and 6 min (2×) | Time (min) to onset of: Vomiting [6, 8]: 33 min and 75 min and 5 min (2×) and >120 min (11×) and 37 min and 10 min and 13 min and 6 min and 41 min | Total number of individual incidences of: Vomiting [6, 8]: 4 (2×) and 1 (6×) and 0 (11×) and 2
